# Test results from the supplement of paper PMC10307832.
# Key:
# Experiment in all cases: relative viability (nuclei count vs DMSO), 5 days (fraction); higher = more cells survive
# NCI-H647 = system: NCI-H647
# How it was run: (§1)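 Lung cancer cell lines in 1536-well plates were dosed by pin tool the day after seeding, either with one drug alone or with a fixed anchor-drug dose plus five library-drug doses (not always all listed) in √10 steps. After 5 days, cells were fixed and their nuclei stained in one step (final 0.05% Triton X-100, 1% formaldehyde, 1 ug/ml Hoechst), then counted on 4× images. Relative viability is the nuclei count in treated wells divided by that in vehicle wells. Values are medians of duplicate plates.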
# LC-2-ad = system: LC-2-ad
# How it was run: as §1
# COR-L 105 = system: COR-L 105
# How it was run: as §1
# H3255 = system: H3255
# How it was run: as §1
# NCI-H520 = system: NCI-H520
# How it was run: as §1
# NCI-H522 = system: NCI-H522
# How it was run: as §1
# NCI-H650 = system: NCI-H650
# How it was run: as §1
# PC-14 = system: PC-14
# How it was run: as §1
# RERF-LC-KJ = system: RERF-LC-KJ
# How it was run: as §1
# NCI-H322M = system: NCI-H322M
# How it was run: as §1
# NCI-H2126 = system: NCI-H2126
# How it was run: as §1
# NCI-H2405 = system: NCI-H2405
# How it was run: as §1
# 201T = system: 201T
# How it was run: as §1
# EPLC-272H = system: EPLC-272H
# How it was run: as §1
# NCI-H23 = system: NCI-H23
# How it was run: as §1
# NCI-H2347 = system: NCI-H2347
# How it was run: as §1
# NCI-H661 = system: NCI-H661
# How it was run: as §1
# ChaGo-K-1 = system: ChaGo-K-1
# How it was run: as §1
# HCC-78 = system: HCC-78
# How it was run: as §1
# NCI-H2087 = system: NCI-H2087
# How it was run: as §1
# NCI-H1915 = system: NCI-H1915
# How it was run: as §1
# NCI-H1666 = system: NCI-H1666
# How it was run: as §1
# LCLC-97TM1 = system: LCLC-97TM1
# How it was run: as §1
# HCC-827 = system: HCC-827
# How it was run: as §1
compound,measurement,setting,value
COc1cc(N2CCC(C(N)=O)CC2)ccc1Nc1nc(N)c(Cl)c(Nc2ccccc2S(=O)(=O)C(C)C)n1 [HG-5-88-01] + O=C(c1cc(Cc2n[nH]c(=O)c3ccccc23)ccc1F)N1CCN(C(=O)C2CC2)CC1 [Olaparib] (partner 8 µM),relative viability,NCI-H647; first compound 0.04 µM,0.552
same,relative viability,NCI-H647; first compound 0.1265 µM,0.553
same,relative viability,NCI-H647; first compound 1.265 µM,0.667
same,relative viability,NCI-H647; first compound 4 µM,0.738
same,relative viability,LC-2-ad; first compound 0.04 µM,0.691
same,relative viability,LC-2-ad; first compound 0.1265 µM,0.692
same,relative viability,LC-2-ad; first compound 0.4 µM,0.725
same,relative viability,LC-2-ad; first compound 1.265 µM,0.692
same,relative viability,LC-2-ad; first compound 4 µM,0.721
same,relative viability,COR-L 105; first compound 0.04 µM,0.752
same,relative viability,COR-L 105; first compound 0.1265 µM,0.765
same,relative viability,COR-L 105; first compound 0.4 µM,0.708
same,relative viability,COR-L 105; first compound 1.265 µM,0.692
same,relative viability,COR-L 105; first compound 4 µM,0.683
same,relative viability,H3255; first compound 0.04 µM,0.556
same,relative viability,H3255; first compound 0.1265 µM,0.593
same,relative viability,H3255; first compound 0.4 µM,0.555
same,relative viability,H3255; first compound 4 µM,0.531
same,relative viability,NCI-H520; first compound 0.04 µM,0.289
same,relative viability,NCI-H520; first compound 0.1265 µM,0.33
same,relative viability,NCI-H520; first compound 0.4 µM,0.389
same,relative viability,NCI-H520; first compound 1.265 µM,0.327
same,relative viability,NCI-H520; first compound 4 µM,0.363
same,relative viability,NCI-H522; first compound 0.04 µM,0.724
same,relative viability,NCI-H522; first compound 0.1265 µM,0.665
same,relative viability,NCI-H522; first compound 0.4 µM,0.761
same,relative viability,NCI-H522; first compound 1.265 µM,0.574
same,relative viability,NCI-H522; first compound 4 µM,0.594
same,relative viability,NCI-H650; first compound 0.04 µM,0.423
same,relative viability,NCI-H650; first compound 0.1265 µM,0.366
same,relative viability,NCI-H650; first compound 0.4 µM,0.408
same,relative viability,NCI-H650; first compound 1.265 µM,0.321
same,relative viability,NCI-H650; first compound 4 µM,0.239
same,relative viability,PC-14; first compound 0.04 µM,0.257
same,relative viability,PC-14; first compound 0.1265 µM,0.339
same,relative viability,PC-14; first compound 0.4 µM,0.321
same,relative viability,PC-14; first compound 1.265 µM,0.307
same,relative viability,PC-14; first compound 4 µM,0.0752
same,relative viability,RERF-LC-KJ; first compound 0.04 µM,0.937
same,relative viability,RERF-LC-KJ; first compound 0.1265 µM,0.957
same,relative viability,RERF-LC-KJ; first compound 0.4 µM,0.878
same,relative viability,RERF-LC-KJ; first compound 1.265 µM,0.884
same,relative viability,RERF-LC-KJ; first compound 4 µM,0.519
same,relative viability,NCI-H322M; first compound 0.04 µM,0.809
same,relative viability,NCI-H322M; first compound 0.1265 µM,0.699
same,relative viability,NCI-H322M; first compound 0.4 µM,0.913
same,relative viability,NCI-H322M; first compound 1.265 µM,0.485
same,relative viability,NCI-H322M; first compound 4 µM,0.686
same,relative viability,NCI-H2126; first compound 0.04 µM,0.972
same,relative viability,NCI-H2126; first compound 0.1265 µM,0.911
same,relative viability,NCI-H2126; first compound 0.4 µM,0.939
same,relative viability,NCI-H2126; first compound 1.265 µM,0.822
same,relative viability,NCI-H2126; first compound 4 µM,0.872
same,relative viability,NCI-H2405; first compound 0.04 µM,0.885
same,relative viability,NCI-H2405; first compound 0.1265 µM,0.904
same,relative viability,NCI-H2405; first compound 0.4 µM,0.807
same,relative viability,NCI-H2405; first compound 1.265 µM,0.524
same,relative viability,NCI-H2405; first compound 4 µM,0.75
same,relative viability,201T; first compound 0.04 µM,0.841
same,relative viability,201T; first compound 0.1265 µM,0.844
same,relative viability,201T; first compound 1.265 µM,0.795
same,relative viability,201T; first compound 4 µM,0.831
same,relative viability,EPLC-272H; first compound 0.04 µM,0.976
same,relative viability,EPLC-272H; first compound 0.1265 µM,0.785
same,relative viability,EPLC-272H; first compound 0.4 µM,0.959
same,relative viability,EPLC-272H; first compound 1.265 µM,0.495
same,relative viability,EPLC-272H; first compound 4 µM,0.0585
same,relative viability,NCI-H23; first compound 0.04 µM,0.321
same,relative viability,NCI-H23; first compound 0.1265 µM,0.279
same,relative viability,NCI-H23; first compound 0.4 µM,0.303
same,relative viability,NCI-H23; first compound 1.265 µM,0.334
same,relative viability,NCI-H23; first compound 4 µM,0.194
same,relative viability,NCI-H2347; first compound 0.04 µM,0.664
same,relative viability,NCI-H2347; first compound 0.1265 µM,0.569
same,relative viability,NCI-H2347; first compound 0.4 µM,0.61
same,relative viability,NCI-H2347; first compound 1.265 µM,0.539
same,relative viability,NCI-H2347; first compound 4 µM,0.549
same,relative viability,NCI-H661; first compound 0.04 µM,0.707
same,relative viability,NCI-H661; first compound 0.1265 µM,0.779
same,relative viability,NCI-H661; first compound 0.4 µM,0.8
same,relative viability,NCI-H661; first compound 1.265 µM,0.716
same,relative viability,NCI-H661; first compound 4 µM,0.845
same,relative viability,ChaGo-K-1; first compound 0.04 µM,0.421
same,relative viability,ChaGo-K-1; first compound 0.1265 µM,0.418
same,relative viability,ChaGo-K-1; first compound 0.4 µM,0.455
same,relative viability,ChaGo-K-1; first compound 1.265 µM,0.421
same,relative viability,ChaGo-K-1; first compound 4 µM,0.393
same,relative viability,HCC-78; first compound 0.04 µM,0.868
same,relative viability,HCC-78; first compound 0.1265 µM,0.664
same,relative viability,HCC-78; first compound 0.4 µM,0.511
same,relative viability,HCC-78; first compound 1.265 µM,0.302
same,relative viability,HCC-78; first compound 4 µM,0.422
same,relative viability,NCI-H2087; first compound 0.04 µM,0.557
same,relative viability,NCI-H2087; first compound 0.1265 µM,0.645
same,relative viability,NCI-H2087; first compound 0.4 µM,0.585
same,relative viability,NCI-H2087; first compound 1.265 µM,0.536
same,relative viability,NCI-H2087; first compound 4 µM,0.502
same,relative viability,NCI-H1915; first compound 0.04 µM,0.259
same,relative viability,NCI-H1915; first compound 0.1265 µM,0.25
same,relative viability,NCI-H1915; first compound 0.4 µM,0.304
same,relative viability,NCI-H1915; first compound 1.265 µM,0.266
same,relative viability,NCI-H1915; first compound 4 µM,0.248
same,relative viability,NCI-H1666; first compound 0.04 µM,0.759
same,relative viability,NCI-H1666; first compound 0.1265 µM,0.737
same,relative viability,NCI-H1666; first compound 0.4 µM,0.816
same,relative viability,NCI-H1666; first compound 1.265 µM,0.771
same,relative viability,NCI-H1666; first compound 4 µM,0.684
same,relative viability,LCLC-97TM1; first compound 0.04 µM,0.434
same,relative viability,LCLC-97TM1; first compound 0.1265 µM,0.396
same,relative viability,LCLC-97TM1; first compound 0.4 µM,0.398
same,relative viability,LCLC-97TM1; first compound 1.265 µM,0.26
same,relative viability,LCLC-97TM1; first compound 4 µM,0.193
same,relative viability,HCC-827; first compound 0.04 µM,0.695
same,relative viability,HCC-827; first compound 0.1265 µM,0.676
same,relative viability,HCC-827; first compound 0.4 µM,0.363
same,relative viability,HCC-827; first compound 1.265 µM,0.203
same,relative viability,HCC-827; first compound 4 µM,0.24
